In article PMC10555500, “Evaluation of the Antiproliferative Properties of CpRu Complexes Containing N-Methylated Triazaphosphaadamantane Derivatives” (Bioinorganic Chemistry and Applications, 2023):

What was measured:
[1] = tested on: MDA-MB-231 breast cancer cells; test: MTT cytotoxicity assay, MDA-MB-231 cells; format: cell-based, human; settings: 24 h incubation, MTT, average of at least three experiments (±SD)
Procedure: (§1) The MDA-MB-231 and MCF-7 human breast cancer cells were purchased from ATCC. The MDA-MB-231 and MCF-7 cells were grown in Dulbecco's modified Eagles' medium (DMEM high glucose) (Capricorn Scientific) at 37°C in 5% CO2 supplemented with 10% fetal bovine serum (Capricorn Scientific). HDF cells were purchased from Merck and were grown in the fibroblast growth medium. All cells were adherent in monolayers and, upon confluence, were washed with phosphate buffer saline (PBS) and harvested by digestion with trypsin-EDTA 0.05% (v/v). The cells were suspended and transferred into new, sterile, culture flasks for maintenance or seeded in sterile test microplates for different assays. All cells were manipulated under aseptic conditions in a flow chamber.
(§2) The cells were adherent in monolayers and, upon confluence, were harvested by digestion with trypsin. The cytotoxicity of the complexes against the tumour cells was assessed using the colorimetric assay MTT […], which evaluates the metabolic activity of viable cells. This assay measures the conversion of yellow tetrazolium into purple formazan by an active mitochondrial dehydrogenase in living cells. For this purpose, the cells (10–20 × 10^3 in 200 μL of the medium) were seeded into 96-well plates and incubated in a 5% CO2 incubator at 37°C. The cells were settled for 24 h followed by the addition of a dilution series of the complexes in a medium (200 μL). The complexes were first solubilized in 100% DMSO, given a 10 mM stock solution, and then in a medium within the concentration range of 0.1–100 µM. […] After 24 h of incubation, the treatment solutions were removed by aspiration, and MTT solution (200 μL, 0.5 mg·mL^−1 in PBS) was added to each well. After 3 h at 37°C/5% CO2, the solution was removed, and the purple formazan crystals formed inside the cells were dissolved in DMSO (200 μL) by thorough shaking. The cellular viability was evaluated by measuring the absorbance at 570 nm by using a microplate spectrophotometer. The IC50 values were obtained by dose-response curves using the GraphPad Prism software (vs. 5).
The MDA-MB-231 and MCF-7 human breast cancer cells were purchased from ATCC. MDA-MB-231 and MCF-7 cells were grown in Dulbecco’s modified Eagles’s medium (DMEM high glucose) (Capricorn Scientific) at 37 °C in 5% CO2 supplemented with 10% fetal bovine serum (Capricorn Scientific). All cells were adherent in monolayers and, upon confluence, were washed with phosphate buffer saline (PBS) and harvested by digestion with Trypsin-EDTA 0.05% (v/v). The cells were suspended and transferred into new, sterile, culture flasks, for maintenance or seeded in sterile test microplates for different assays. All cells were manipulated under aseptic conditions in a flow chamber.
The cells were adherent in monolayers and, upon confluency, were harvested by digestion with trypsin. The cytotoxicity of the complexes against the tumour cells was assessed using the colorimetric assay MTT […], which evaluate the metabolic activity of viable cells. This assay measures the conversion of the yellow tetrazolium into purple formazan by an active mitochondrial dehydrogenase in living cells. For this purpose, cells (10-20 × 10^3 in 200 μL of medium) were seeded into 96-well plates and incubated in a 5% CO2 incubator at 37 °C. The cells were settled for 24 h followed by the addition of a dilution series of the complexes in medium (200 μL). The complexes were first solubilized in 100% DMSO, given a 10 mM stock solution, and then in medium within the concentration range of 0.1–100 µM. […] After 24 h of incubation, the treatment solutions were removed by aspiration, and MTT solution (200 μL, 0.5 mg·mL^-1 in PBS) was added to each well. After 3 h at 37 °C/5% CO2, the solution was removed, and the purple formazan crystals formed inside the cells were dissolved in DMSO (200 μL) by thorough shaking. […]

[2] = tested on: normal human fibroblasts (HDF); test: MTT cytotoxicity assay, normal human dermal fibroblasts; format: cell-based
Procedure: as §1, §2

[3] = Stability in DMSO-d6 and DMSO-d6/D2O monitored by 31P{1H} NMR; format: physicochemical
From the text: The assessment of the biological properties of the complexes requires their dissolution in a cell culture medium which is mainly constituted by water. When the complex is not hydrosoluble enough, the used protocol contemplates preliminary dissolution in DMSO before the addition to the culture medium. Thus, it is important to determine the stability and behaviour of the complexes in both DMSO and water/DMSO mixtures to check whether different species have been formed when dissolved. Dissolutions in DMSO-d6 and DMSO-d6/D2O of the new complexes 8 and 11 were monitored by ^31P{^1H} NMR over time at room temperature and 37°C. The stability studies of the rest of the complexes (1‐7, 9, 10) were published previously. All experiments were performed by a similar procedure: the complex (0.01 g) was introduced into a 5 mm NMR tube and dissolved in 0.5 mL of degassed solvent (DMSO-d6 and a 1 : 1 mixture of DMSO-d6/D2O). The solution was left at room temperature and monitored by ^31P{^1H} NMR first every 15 minutes, and later in longer periods. Stability was also monitored at incubation cell-based assay temperature (37°C).
All compounds were studied for their stability in 100% DMSO-d6 and DMSO-d6/D2O mixture by using NMR spectroscopy in common aerobic conditions. All experiments were performed by a similar procedure: the complex (0.01 g) was introduced into a 5 mm NMR tube and dissolved in 0.5 mL of degassed solvent (DMSO-d6 and a 1:1 mixture of DMSO-d6/D2O). The solution was left at room temperature and monitored by ^31P{^1H} NMR first every 15 minutes, and later in longer time periods. Stability was also monitored at incubation cell-based assays temperature (37 °C).

Q: For CN1CN2CN(C)C[P]([Ru+2]([P](c3ccccc3)(c3ccccc3)c3ccccc3)[P](c3ccccc3)(c3ccccc3)c3ccccc3)(C1)C2.O=S(=O)([O-])C(F)(F)F.[Cl][Pd][Cl].c1cc[cH-]c1 [Compound 11, [RuCp(PPh3)2-µ-dmoPTA-1κP-2κ^2N,N′-PdCl2](CF3SO3)], which IC50 [1] is on record?
A: 1100 ± 200 nM

Q: And the IC50 ([2]; 24 h incubation, MTT, normal human fibroblasts)?
A: 1590 ± 450 nM

Q: And the “Fold less cytotoxic for fibroblasts (HDF) than for MCF-7 cells” value ([2]; selectivity HDF vs MCF-7)?
A: 2-3 fold

Q: What about the “Fold less cytotoxic for fibroblasts (HDF) than for MDA-MB-231 cells” value ([2]; selectivity HDF vs MDA-MB-231) of the same compound?
A: 1.5 fold

Q: What about the “Fraction converted to complex 8 (solvolysis) in DMSO” value ([3]; DMSO-d6, visible after 4 h, constant up to 48 h) of the same compound?
A: < 7%

Q: What about the “Stability in DMSO-d6” value ([3]; room temperature and 37°C, 48 h, 31P{1H} NMR) of the same compound?
A: very stable
